In patent US4118491A, “7-Acyl-3-(sulfaminoalkyl substituted tetrazolylthiomethyl)cephalosporins, antibacterial compositions containing them and methods of treating bacterial infections with them” (SmithKline Corporation, priority 1976, dated 1978) one finds MIC, ED50 and MIC in vitro data, which are given here for four compounds.

The MIC is the least concentration at which growth counts as inhibited. For orientation: ED50 means the midpoint of the dose-response relation. Lower therefore signals greater potency.

Converted amounts (≈) assume the structure as drawn. Read-outs that look alike come from different tables or passages of the source.

In assay [1] the test system is S. aureus HH 127. The experiment in a line: MIC in vitro, S. aureus HH 127. The following applies: Staphylococcus aureus. The format is cell-based. Here is the method:
(§1) The compounds of Formula I have antibacterial activity against both Gram-positive and Gram-negative organisms. Minimum inhibitory concentrations (MIC's) range from 0.2 to >200 μg/ml in in vitro testing.

Assay [2] has as its system S. aureus SK 23390. The experiment in a line: MIC in vitro, S. aureus SK 23390. The format is cell-based. The settings on record: Staphylococcus aureus. Here is the method: as §1
In assay [3] the test system is Strep. faecalis HH 34358. The experiment in a line: MIC in vitro, Strep. faecalis HH 34358. The format is cell-based. The settings on record: for MIC: Enterococcus faecalis, HH34358, Strep. faecalis HH 34358. Here is the method: as §1
Assay [4] relates to E. coli SK 12140. The experiment in a line: MIC in vitro, E. coli SK 12140. The settings on record: Escherichia coli. The format is cell-based. The method, then:
as §1

In assay [5] the test system is E. coli HH 33779. The experiment in a line: MIC in vitro, E. coli HH 33779. The format is cell-based. The following applies: for MIC: Escherichia coli. Here is the method: as §1
For assay [6], the system named is Kleb. pneumo. SK 4200. The experiment in a line: MIC in vitro, Kleb. pneumo. SK 4200. The format is cell-based. The method, then: as §1
For assay [7], the system named is Kleb. pneumo. SK 1200. The experiment in a line: MIC in vitro, Kleb. pneumo. SK 1200. The format is cell-based. Here is the method: as §1
Assay [8] relates to Salmonella ATCC 12176. The experiment in a line: MIC in vitro, Salmonella ATCC 12176. The format is cell-based. The following applies: ATCC12176, Salmonella ATCC 12176. The method, then:
as §1

Assay [9] deals with Pseudo. aerug. HH 63. The experiment in a line: MIC in vitro, Pseudo. aerug. HH 63. The format is cell-based. The method, then: as §1
The subject of assay [10] is Serrati A marc. ATTC 13880. The experiment in a line: MIC in vitro, Serrati A marc. ATTC 13880. The format is cell-based. Here is the method: as §1
Assay [11] concerns Proteus morgani 179. The experiment in a line: MIC in vitro, Proteus morgani 179. The format is cell-based. The method, then:
as §1

Assay [12] deals with Entero. aerog. ATTC 13048. The experiment in a line: MIC in vitro, Entero. aerog. ATTC 13048. The format is cell-based. The method, then:
as §1

Assay [13] deals with Entero. cloacae HH 31254. The experiment in a line: MIC in vitro, Entero. cloacae HH 31254. The settings on record: Enterobacter cloacae. The format is cell-based. Here is the method:
as §1

The subject of assay [14] is E. coli SK 12140. The experiment in a line: In vivo mouse protection, E. coli SK 12140. The settings on record: Escherichia coli. The method, then: as §1
The subject of assay [15] is Shigella HH 117. The experiment in a line: MIC in vitro, Shigella HH 117. The format is cell-based. The following applies: for MIC: Shigella, HH117, Shigella HH 117. The method, then: as §1
Assay [16] relates to Kleb. pneumo. SK 4200. The experiment in a line: In vivo mouse protection, Kleb. pneumo. SK 4200. The following applies: sc, Kleb. pneumo. SK 4200, s.c.
In assay [17] the test system is S. villaluz SK 70390. The experiment in a line: MIC in vitro, S. villaluz SK 70390. The format is cell-based. Here is the method:
as §1

The mark [18] stands for this setting: HH127, S. aureus HH 127, read-out: MIC in vitro.
The mark [19] stands for this setting: HH33779, E. coli HH 33779, read-out: MIC in vitro.
Setting [20] is: Entero. aerog. ATTC 13048, read-out: MIC in vitro.
Setting [21] is: HH31254, Entero. cloacae HH 31254, read-out: MIC in vitro.
Setting [22] is: SK12140, po, E. coli SK 12140, p.o.
The mark [23] stands for this setting: SK12140, sc, E. coli SK 12140, s.c.
Setting [24] is: SK23390, S. aureus SK 23390, read-out: MIC in vitro.
Where [25] appears, read: SK12140, E. coli SK 12140, read-out: MIC in vitro.
Where [26] appears, read: read-out: MIC in vitro, Kleb. pneumo. SK 1200.
[27] abbreviates: read-out: MIC in vitro, Entero. aerog. ATTC 13048.

`O=C(Cc1cccs1)NC1C(=O)N2C(C(=O)O)=C(CSc3nnnn3CCNS(=O)(=O)O)CSC12` (stereo not shown) [Compound 2, 7-(2-thienylacetamido)-3-[1-(2-sulfaminoethyl)tetrazol-5-ylthiomethyl]-3-cephem-4-carboxylic acid]: the MIC in assay [1] (setting [18]) came out at 1.6 mg/L (≈ 2.85 µM); in assay [2] (SK23390, read-out: MIC in vitro), 0.4 mg/L (≈ 0.712 µM); in assay [3] it was 12.5 mg/L (≈ 22.3 µM); in assay [4] (SK12140, read-out: MIC in vitro) it was 3.1 mg/L (≈ 5.52 µM); in [5] (setting [19]) it was 12.5 mg/L (≈ 22.3 µM); in [6] it was 3.1 mg/L (≈ 5.52 µM). The MIC in assay [7] (Kleb. pneumo. SK 1200, read-out: MIC in vitro) was 0.8 mg/L (≈ 1.42 µM); in [8], 12.5 mg/L (≈ 22.3 µM); in assay [9], more than 200 mg/L; in assay [10], more than 200 mg/L; in assay [11], more than 200 mg/L; in assay [12] (setting [20]), 25 mg/L (≈ 44.5 µM). The MIC in assay [13] (setting [21]) was determined as 6.3 mg/L (≈ 11.2 µM). In addition, the figures for the ED50 in assay [14] (setting [22]) and in assay [14] (setting [23]) were more than 50 mg/kg and 1.02 mg/kg, respectively.

Turning to `O=C(O)C1=C(CSc2nnnn2CCNS(=O)(=O)O)CSC2C(NC(=O)[C@H](O)c3ccccc3)C(=O)N12` (stereo partly drawn) [Compound 1, 7-D-mandelamido-3-[1-(2-sulfaminoethyl)tetrazol-5-ylthiomethyl]-3-cephem-4-carboxylic acid], the MIC amounted to 3.1 mg/L (≈ 5.42 µM) in assay [1] (HH127, read-out: MIC in vitro); 0.8 mg/L (≈ 1.4 µM) in [2] (setting [24]); 100 mg/L (≈ 175 µM) in [3]; 0.8 mg/L (≈ 1.4 µM) in assay [4] (setting [25]); 3.1 mg/L (≈ 5.42 µM) in [5] (setting [19]); 1.6 mg/L (≈ 2.8 µM) in assay [6]. Besides, the MIC is 0.4 mg/L (≈ 0.7 µM) in assay [7] (setting [26]); 0.4 mg/L (≈ 0.7 µM) in [15]; more than 200 mg/L in assay [9]; 100 mg/L (≈ 175 µM) in assay [10]; 50 mg/L (≈ 87.5 µM) in [12] (setting [20]); 6.3 mg/L (≈ 11 µM) in assay [12] (setting [27]). Further, the MIC in assay [13] (setting [21]) was found to be 1.6 mg/L (≈ 2.8 µM). Besides, the MIC in vitro turned out to be 50 mg/L (≈ 87.5 µM) in [3] (Strep. faecalis HH 34358); 1.6 mg/L (≈ 2.8 µM) in [5] (E. coli HH 33779); 0.8 mg/L (≈ 1.4 µM) in [6]; 0.2 mg/L (≈ 0.35 µM) in assay [7] (Kleb. pneumo. SK 1200); 0.2 mg/L (≈ 0.35 µM) in [15] (Shigella HH 117); 3.1 mg/L (≈ 5.42 µM) in [11]. The results for the ED50 in [14] (setting [22]), in assay [14] (setting [23]) and in [16] were 50 mg/kg, 0.46 mg/kg and 0.46 mg/kg, respectively.

Consider `O=C(Cn1cnnn1)NC1C(=O)N2C(C(=O)O)=C(CSc3nnnn3CCNS(=O)(=O)O)CSC12` (stereo not shown) [Compound 3, 7-(1-tetrazolylacetamido)-3-[1-(2-sulfaminoethyl)tetrazol-5-ylthiomethyl]-3-cephem-4-carboxylic acid], for which the MIC in assay [1] (HH127, read-out: MIC in vitro) was 3.1 mg/L (≈ 5.66 µM); in [2] (setting [24]), 3.1 mg/L (≈ 5.66 µM); in assay [17], more than 200 mg/L; in [3] it was 50 mg/L (≈ 91.3 µM); in [4] (setting [25]) it was 0.8 mg/L (≈ 1.46 µM); in assay [5] (HH33779, read-out: MIC in vitro) it was 0.8 mg/L (≈ 1.46 µM). Besides, the MIC in [6] was 0.8 mg/L (≈ 1.46 µM); in assay [7] (setting [26]), 0.4 mg/L (≈ 0.731 µM); in assay [8], 0.4 mg/L (≈ 0.731 µM); in [15], 0.4 mg/L (≈ 0.731 µM); in [9], more than 200 mg/L; in assay [10], 200 mg/L (≈ 365 µM). Also, the MIC in assay [11] is 200 mg/L (≈ 365 µM); in assay [12] (setting [27]) it was 3.1 mg/L (≈ 5.66 µM); in assay [13] (HH31254, read-out: MIC in vitro) it was 0.8 mg/L (≈ 1.46 µM). In addition, in assay [14] (setting [23]), it took a dose of 1.56 mg/kg to reach the 50% effect level (ED50).

Consider `O=C(CSC(F)(F)F)NC1C(=O)N2C(C(=O)O)=C(CSc3nnnn3CCNS(=O)(=O)O)CSC12` (stereo not shown) [Compound 4, 7-trifluoromethylthioacetamido-3-[1-(2-sulfaminoethyl)tetrazol-5-ylthiomethyl]-3-cephem-4-carboxylic acid], for which the MIC in assay [1] (setting [18]) was 1.6 mg/L (≈ 2.76 µM); in [2] (setting [24]), 1.6 mg/L (≈ 2.76 µM); in [17], more than 200 mg/L; in assay [3], 100 mg/L (≈ 173 µM); in [4] (setting [25]) it was 0.8 mg/L (≈ 1.38 µM); in [5] (setting [19]), 1.6 mg/L (≈ 2.76 µM). Further, the MIC was 0.8 mg/L (≈ 1.38 µM) in [6]; 0.2 mg/L (≈ 0.345 µM) in assay [7] (setting [26]); 0.4 mg/L (≈ 0.69 µM) in assay [8]; 0.8 mg/L (≈ 1.38 µM) in assay [15]; more than 200 mg/L in [9]; 100 mg/L (≈ 173 µM) in assay [10]. Moreover, the values for the MIC in assay [11], in assay [12] (setting [27]) and in assay [13] (setting [21]) were more than 200 mg/L, 6.3 mg/L (≈ 10.9 µM) and 1.6 mg/L (≈ 2.76 µM), respectively. In addition, the ED50 in assay [14] (setting [22]) was 50 mg/kg; in [14] (setting [23]), 1.82 mg/kg.
